From US20070123491A1, “Podophyllotoxin derivatives as igf-1r inhibitors” (BIOVITRUM AB, priority 2003, published 2007)

What was measured:
[1] = molecular target: T1, insulin receptor (IR) (Homo sapiens, UniProt P06213); assay: Tyrosine phosphorylation of IR in intact FM55 melanoma cells; type: cell-based; conditions: Experiment 3, 0.7 μM, 1 h, control = 100%
T1 construct: endogenous in cells; host or cells: FM55 human melanoma cells
Procedure: (§1) Cells were cultured to subconfluency in 6-cm plates, and then fresh medium containing 10% FBS and the desired compounds were added for 1 h. The cells were then lyzed and subjected to immunoprecipitation using specific antibodies. Immunoprecipitates were resolved by sodium dodecyl sulphate polyacrylamide gel electrophoresis (SDS-PAGE) and transferred to nitro-cellulose membranes and incubated with anti-phosphotyrosine antibody. Antibodies to actin (in cell extract) or IGF-1R beta subunit were used as loading controls. After detection the films were scanned for quantification.
(§2) The isolated cells were then lyzed in 10 ml ice-cold PBSTDS containing protease inhibitors (Carlberg, M., et al., J Biol Chem 271:17453-17462, 1996). 50 μl protein A or G agarose was added in 1 ml sample and incubated for 15 min at 4° C. on an orbital shaker. […] The protein content was determined by a dye-binding assay with a reagent purchased from Bio-Rad. […]
(§3) Following SDS-PAGE the proteins were transferred overnight to nitro-cellulose membranes (Hybond, Amersham, UK) and then blocked for 1 h at room temperature in a solution of 4% skimmed milk powder and 0.02% Tween 20 in PBS, pH 7.5. […] After another 3 washes the membranes were incubated with Streptavidin-labelled horseradish peroxidase for 30 min and then detected using Amersham ECL system (Amersham, UK). […]

[2] = test system: insulin substrate-1 (IRS-1); assay: Tyrosine phosphorylation of IRS-1 in intact FM55 melanoma cells; type: cell-based, human; conditions: Experiment 3, 0.7 μM, 1 h, control = 100%
Procedure: as §1, §2, §3

[3] = molecular target: T2, IGF-1R from P6 cell extract (Homo sapiens, UniProt P08069); assay: In vitro tyrosine kinase assay: IGF-1R-catalyzed pTG substrate phosphorylation; type: biochemical; conditions: cell-free
T2 construct: expressed in transfected cells; host or cells: P6 cell line (embryonic mouse fibroblasts)
Procedure: (§4) IGF-1R-catalyzed substrate phosphorylation of polyTyrGlu (pTG) was performed essentially as previously described [Parrizas M., et al., see above, and Blum G., et al., see above]. Immunoprecipitated IR from HepG2, IGF-1R from P6 cell extract and immunodepleted supernatant to assay non-IGF-1R tyrosine kinases. The phosphorylated polymer substrate was probed with a purified phosphotyrosine specific monoclonal antibody conjugated to horseradish peroxidase (HARP). Color was developed with HRP chromogenic substrate o-phenylenediamine dihydrochloride (OPD). The color was quantitated by spectrophotometry (BLISA reader) and reflects the relative amount of tyrosine kinase. The precipitate was immunoblotted with antibodies to IGF-1R and IR to verify the presence of the receptor. Serial dilutions were used to assay the optimal conditions with respect to the amount of IGF-1R and IR. The signal was linear for 30 minutes and was a function of IGF-1R concentration up to 75 ng/well. Briefly, 96 well plates (Immunolon, Nunc) were coated overnight at 4° C. with a mouse monoclonal antibody (LabVision) against the beta-subunit of IGF-1R at a concentration of 1 μg/ml. […]
(§5) We isolated the receptor and determined the effects of 4,5-demethylene-deoxypodophyllotoxin on IGF-1R catalyzed substrate tyrosine phosphorylation and IGF-1R autophosphorylation in-vitro. […]

[4] = molecular target: epidermal growth factor receptor (Homo sapiens, UniProt P00533); assay: In vitro tyrosine kinase assay: EGFR substrate phosphorylation; type: biochemical; conditions: cell-free; data not shown
epidermal growth factor receptor, sequence (P00533 25-1210, species assumed): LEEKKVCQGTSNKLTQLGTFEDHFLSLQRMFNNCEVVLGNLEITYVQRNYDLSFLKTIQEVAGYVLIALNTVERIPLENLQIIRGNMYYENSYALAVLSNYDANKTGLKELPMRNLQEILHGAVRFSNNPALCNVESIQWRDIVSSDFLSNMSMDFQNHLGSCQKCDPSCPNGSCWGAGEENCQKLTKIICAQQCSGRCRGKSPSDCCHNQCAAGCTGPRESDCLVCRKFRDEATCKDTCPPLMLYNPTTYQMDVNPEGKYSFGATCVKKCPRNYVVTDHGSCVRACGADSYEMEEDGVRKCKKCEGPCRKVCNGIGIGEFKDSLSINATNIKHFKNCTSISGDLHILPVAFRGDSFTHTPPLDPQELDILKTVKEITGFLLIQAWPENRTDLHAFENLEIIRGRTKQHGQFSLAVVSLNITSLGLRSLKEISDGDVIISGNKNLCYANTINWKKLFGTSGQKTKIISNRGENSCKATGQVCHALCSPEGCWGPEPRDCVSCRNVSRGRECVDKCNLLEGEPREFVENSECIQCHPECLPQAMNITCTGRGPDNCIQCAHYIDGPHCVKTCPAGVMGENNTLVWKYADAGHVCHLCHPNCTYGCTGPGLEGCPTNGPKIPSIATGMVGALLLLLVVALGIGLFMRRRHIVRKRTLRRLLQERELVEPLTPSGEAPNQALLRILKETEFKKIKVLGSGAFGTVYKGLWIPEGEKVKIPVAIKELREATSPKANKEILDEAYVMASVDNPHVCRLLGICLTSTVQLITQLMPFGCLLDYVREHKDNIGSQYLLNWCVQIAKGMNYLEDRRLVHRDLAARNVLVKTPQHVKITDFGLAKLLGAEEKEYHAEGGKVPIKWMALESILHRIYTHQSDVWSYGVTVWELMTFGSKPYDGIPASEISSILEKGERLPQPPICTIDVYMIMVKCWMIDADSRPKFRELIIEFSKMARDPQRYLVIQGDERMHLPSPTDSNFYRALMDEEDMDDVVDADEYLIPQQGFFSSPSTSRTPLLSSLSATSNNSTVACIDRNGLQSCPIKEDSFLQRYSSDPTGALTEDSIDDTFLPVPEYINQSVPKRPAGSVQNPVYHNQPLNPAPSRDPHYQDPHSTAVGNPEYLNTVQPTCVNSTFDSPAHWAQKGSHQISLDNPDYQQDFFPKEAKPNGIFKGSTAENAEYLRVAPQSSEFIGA

[5] = test system: non-IGF-1R kinases; assay: In vitro tyrosine kinase assay: non-IGF-1R kinases (IGF-1R immunodepleted supernatant); type: biochemical; conditions: cell-free; kinases obtained by immunodepletion of IGF-1R; data not shown
Procedure: as §4, §5

[6] = molecular target: T3, IGF-1R (Homo sapiens, UniProt P08069); assay: IGF-1R tyrosine autophosphorylation, sandwich ELISA; type: biochemical; conditions: cell-free; stronger response by podophyllotoxin
Procedure: IGF-1R tyrosine autophosphorylation was analysed by a sandwich ELISA assay. Briefly, 96-well plates (Immunolon, Nunc) were coated overnight at 4° C. with 1 μg/well of the monoclonal antibody Ab-5 (LabVision) to the IGF-1R beta subunit. The plates were blocked with 1% BSA in PBS Tween for 1 h, then 80 µg/well of total protein lysate from the P6 cell line was added. As a negative control was used total protein lysate from R-cell line. The investigated compounds were added in tyrosine kinase buffer without ATP at room temperature for 30 min, prior to kinase activation with ATP. Kinase assay was performed using the Sigma kit.
We isolated the receptor and determined the effects of 4,5-demethylene-deoxypodophyllotoxin on IGF-1R catalyzed substrate tyrosine phosphorylation and IGF-1R autophosphorylation in-vitro. […] A stronger response was obtained by podophyllotoxin.
Target sequence in this assay (P08069 31-1367): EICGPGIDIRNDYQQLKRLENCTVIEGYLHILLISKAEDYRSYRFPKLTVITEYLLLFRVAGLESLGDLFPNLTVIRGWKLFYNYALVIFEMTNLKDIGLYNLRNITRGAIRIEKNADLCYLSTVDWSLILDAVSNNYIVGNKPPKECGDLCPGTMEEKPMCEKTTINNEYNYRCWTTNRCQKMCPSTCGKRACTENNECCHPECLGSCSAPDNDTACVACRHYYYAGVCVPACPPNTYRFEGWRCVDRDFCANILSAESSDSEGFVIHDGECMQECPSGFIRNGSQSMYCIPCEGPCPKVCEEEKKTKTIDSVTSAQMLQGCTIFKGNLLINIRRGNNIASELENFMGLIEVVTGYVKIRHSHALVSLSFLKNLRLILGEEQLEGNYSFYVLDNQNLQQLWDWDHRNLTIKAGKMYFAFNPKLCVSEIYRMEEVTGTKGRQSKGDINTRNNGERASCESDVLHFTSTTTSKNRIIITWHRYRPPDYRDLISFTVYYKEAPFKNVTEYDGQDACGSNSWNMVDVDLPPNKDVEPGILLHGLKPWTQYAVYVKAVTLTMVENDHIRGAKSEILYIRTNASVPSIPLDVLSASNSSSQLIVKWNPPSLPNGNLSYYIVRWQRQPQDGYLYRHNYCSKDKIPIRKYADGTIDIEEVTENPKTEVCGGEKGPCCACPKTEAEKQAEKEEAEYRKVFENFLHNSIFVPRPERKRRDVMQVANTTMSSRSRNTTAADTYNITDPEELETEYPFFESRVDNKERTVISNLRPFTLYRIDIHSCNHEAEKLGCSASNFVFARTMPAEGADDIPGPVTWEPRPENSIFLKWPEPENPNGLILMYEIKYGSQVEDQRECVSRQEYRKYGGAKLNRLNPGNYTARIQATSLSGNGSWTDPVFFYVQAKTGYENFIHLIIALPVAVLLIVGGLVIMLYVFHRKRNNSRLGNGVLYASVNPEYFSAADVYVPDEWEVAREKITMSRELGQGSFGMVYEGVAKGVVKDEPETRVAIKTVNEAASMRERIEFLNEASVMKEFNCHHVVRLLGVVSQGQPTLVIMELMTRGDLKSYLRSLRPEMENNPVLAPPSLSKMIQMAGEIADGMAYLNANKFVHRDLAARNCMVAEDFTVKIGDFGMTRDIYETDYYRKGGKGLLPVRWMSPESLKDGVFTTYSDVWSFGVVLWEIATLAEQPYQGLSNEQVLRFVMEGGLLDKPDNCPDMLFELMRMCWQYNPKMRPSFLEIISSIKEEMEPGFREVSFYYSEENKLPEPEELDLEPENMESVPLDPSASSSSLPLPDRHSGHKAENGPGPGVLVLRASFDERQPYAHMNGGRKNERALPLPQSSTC

[7] = test system: platelet-derived growth factor receptor (PDGFR); assay: Tyrosine phosphorylation of PDGFR in intact FM55 melanoma cells; type: cell-based, human; conditions: Experiment 3, 0.7 μM, 1 h, control = 100%
Procedure: as §1, §2, §3

[8] = molecular target: T4, epidermal growth factor receptor (EGFR) (Homo sapiens, UniProt P00533); assay: Tyrosine phosphorylation of EGFR in intact FM55 melanoma cells; type: cell-based; conditions: Experiment 3, 0.7 μM, 1 h, control = 100%
T4 construct: endogenous in cells; host or cells: FM55 human melanoma cells
T4 sequence (P00533 25-1210): as the sequence (P00533 25-1210, species assumed) above
Procedure: as §1, §2, §3

[9] = molecular target: T3, IGF-1R; assay: Tyrosine phosphorylation of IGF-1R in intact FM55 melanoma cells (immunoprecipitation, Western blot); type: cell-based; design: endogenous in cells; host or cells: FM55 human melanoma cells; conditions: 0.7 μM, 1 h; for Level of IGF-1R phosphorylation in intact cells (% OD): Experiment 1, FM55 melanoma cells, control OD = 100%; for Level of phosphorylation in intact cells (% OD), substrate IGF-1R: Experiment 3, FM55 cells, control = 100%
Procedure: as §1
Target sequence in this assay (P08069 31-1367): as the sequence (P08069 31-1367) above
The isolated cells were then lyzed in 10 ml ice-cold PBSTDS containing protease inhibitors (Carlberg, M., et al., J Biol Chem 271:17453-17462, 1996). 50 μl protein A or G agarose was added in 1 ml sample and incubated for 15 min at 4° C. on an orbital shaker. After centrifugation for 10 min at 10,000 r/min at 4° C. the supernatant was saved. The protein content was determined by a dye-binding assay with a reagent purchased from Bio-Rad. Bovine serum albumin was used as a standard. 15 μl Protein G Plus agarose and 5 μl anti-IGF-1R were added. After a 3 h incubation at 4° C. on an orbital shaker the precipitate was collected by pulse centrifugation in a micro centrifuge at 14,000×g for 10 s. The supernatant was discarded and the pellet was washed 3 times with PBSTDS.
Protein samples were solved in a 2×-sample buffer containing Laemmli buffer and 0.5% […] and boiled for 5 min at 96° C. Samples were separated by SDS-PAGE with a 4% stacking gel and 7.5% separation gel. Molecular weight markers (Bio Rad, Sweden) were run simultaneously in all experiments.
Following SDS-PAGE the proteins were transferred overnight to nitro-cellulose membranes (Hybond, Amersham, UK) and then blocked for 1 h at room temperature in a solution of 4% skimmed milk powder and 0.02% Tween 20 in PBS, pH 7.5. Incubations with the primary antibodies were performed for 1 h at room temperature, followed by 3 washes with PBS with Tween and incubation with the second antibody for 1 h room temperature. After another 3 washes the membranes were incubated with Streptavidin-labelled horseradish peroxidase for 30 min and then detected using Amersham ECL system (Amersham, UK). The films were scanned by Fluor-S (BioRad).
Melanoma cells (line FM55) were seeded in 6-cm dishes, at a concentration of 10,000 cells/cm2 in Minimal Essential Medium supplemented with 10% fetal calf serum (FCS). […] Phosphorylation of IGF-1R was detected by an anti-phosphotyrosine antibody using Western blotting. […] The intensities are quantified by a scanner, which measures the optical density (OD) of the signals. […]

[10] = molecular target: T5, insulin receptor (IR from HepG2) (Homo sapiens, UniProt P06213); assay: In vitro tyrosine kinase assay: insulin receptor substrate phosphorylation; type: biochemical; conditions: cell-free; data not shown
T5 construct: Immunoprecipitated IR from HepG2; endogenous in cells; host or cells: HepG2
T5 sequence (P06213 28-1382): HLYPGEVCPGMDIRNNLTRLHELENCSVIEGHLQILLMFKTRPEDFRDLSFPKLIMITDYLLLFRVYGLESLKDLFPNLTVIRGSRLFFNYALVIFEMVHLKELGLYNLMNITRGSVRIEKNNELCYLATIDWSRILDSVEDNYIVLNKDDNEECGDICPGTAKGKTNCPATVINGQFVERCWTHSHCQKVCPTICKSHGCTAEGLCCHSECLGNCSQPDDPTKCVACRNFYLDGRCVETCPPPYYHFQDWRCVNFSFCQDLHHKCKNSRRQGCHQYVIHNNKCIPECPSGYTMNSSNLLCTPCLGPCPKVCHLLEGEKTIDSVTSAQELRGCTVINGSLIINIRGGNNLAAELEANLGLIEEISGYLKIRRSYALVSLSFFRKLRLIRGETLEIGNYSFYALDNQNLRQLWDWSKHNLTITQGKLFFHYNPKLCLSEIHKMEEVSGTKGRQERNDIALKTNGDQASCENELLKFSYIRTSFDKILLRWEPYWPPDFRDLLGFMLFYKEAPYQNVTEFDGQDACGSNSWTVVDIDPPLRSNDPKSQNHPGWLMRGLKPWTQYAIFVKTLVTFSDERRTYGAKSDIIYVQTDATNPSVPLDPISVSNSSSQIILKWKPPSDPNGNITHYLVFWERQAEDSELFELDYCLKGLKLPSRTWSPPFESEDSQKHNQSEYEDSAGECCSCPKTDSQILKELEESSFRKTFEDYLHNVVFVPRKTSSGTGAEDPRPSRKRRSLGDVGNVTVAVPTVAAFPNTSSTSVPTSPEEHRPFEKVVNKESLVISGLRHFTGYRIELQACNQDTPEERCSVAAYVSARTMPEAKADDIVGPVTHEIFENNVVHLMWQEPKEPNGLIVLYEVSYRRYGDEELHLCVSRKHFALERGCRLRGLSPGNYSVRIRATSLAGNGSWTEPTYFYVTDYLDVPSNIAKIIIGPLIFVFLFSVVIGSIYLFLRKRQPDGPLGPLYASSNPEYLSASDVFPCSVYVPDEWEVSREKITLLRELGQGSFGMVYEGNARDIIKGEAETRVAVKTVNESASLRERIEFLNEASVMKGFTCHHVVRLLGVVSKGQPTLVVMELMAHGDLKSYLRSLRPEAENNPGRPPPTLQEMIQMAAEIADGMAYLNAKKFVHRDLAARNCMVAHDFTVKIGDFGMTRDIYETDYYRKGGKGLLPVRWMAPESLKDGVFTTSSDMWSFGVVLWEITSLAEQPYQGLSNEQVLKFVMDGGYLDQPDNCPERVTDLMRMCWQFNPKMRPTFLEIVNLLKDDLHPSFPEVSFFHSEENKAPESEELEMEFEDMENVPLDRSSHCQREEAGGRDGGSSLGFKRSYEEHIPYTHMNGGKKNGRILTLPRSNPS
Procedure: as §4, §5

[11] = test system: fibroblast growth factor receptor (FGFR); assay: Tyrosine phosphorylation of FGFR in intact FM55 melanoma cells; type: cell-based, human; conditions: Experiment 3, 0.7 μM, 1 h, control = 100%
Procedure: as §1, §2, §3

[12] = molecular target: T3, IGF-1R; assay: Effect on IGF-1R (method not given)
[13] = molecular target: insulin receptor kinase (Homo sapiens, UniProt P06213); conditions: Blum et al., Biochemistry 2000; cited from earlier work
[14] = molecular target: isolated IGF-1R kinase (Homo sapiens, UniProt P08069); conditions: Blum et al., Biochemistry 2000; cited from earlier work

T1 sequence (P06213 28-1382): as above

Row | Structure (SMILES) | Level of phosphorylation in intact cells (% OD), substrate IR [1] [% OD] | Level of phosphorylation in intact cells (% OD), substrate IRS-1 [2] [% OD] | Decrease of pTG substrate phosphorylation by the IGF-1 receptor ([3]; 0.5 μM) | Interference with substrate phosphorylation of epidermal growth factor receptor tyrosine kinase [4] | Interference with substrate phosphorylation of other non-IGF-1R kinases [5] | Inhibition of autophosphorylation of IGF-1R in vitro [6] | Level of phosphorylation in intact cells (% OD), substrate PDGFR [7] [% OD] | Level of phosphorylation in intact cells (% OD), substrate EGFR [8] [% OD] | Level of IGF-1R phosphorylation in intact cells (% OD) [9] [% OD] | Level of phosphorylation in intact cells (% OD), substrate IGF-1R [9] [% OD] | Interference with substrate phosphorylation of insulin receptor tyrosine kinase [10] | Level of phosphorylation in intact cells (% OD), substrate FGFR [11] [% OD] | Effect on IGF-1R substrate phosphorylation [3] | Effect on IGF-1R [12] | Effect on insulin receptor kinase [13] | IC50 [14] [nM]
1 | COc1cc(C2c3cc(O)c(O)cc3CC3COC(=O)C32)cc(OC)c1OC (stereo not drawn) [4,5-demethylene-deoxypodophyllotoxin] | 102 | 70 | about 35% | failed to interfere | failed to interfere | inhibited | 99 | 100 | 73 | 65 | failed to interfere | 104 |  |  |  | 
2 | COc1cc([C@@H]2c3cc4c(cc3[C@H](O)[C@H]3COC(=O)[C@H]23)OCO4)cc(OC)c1OC [Podophyllotoxin, podophyllotoxin] | 103 | 9 |  | had only effect on IGF-1R | had only effect on IGF-1R | inhibited | 101 | 102 | 10 | 12 | had only effect on IGF-1R | 99 | had only effect on IGF-1R |  |  | 
3 | COc1cc(C2c3cc4c(cc3C(OC3OC5COC(c6ccccc6)OC5C(O)C3O)C3COC(=O)C23)OCO4)cc(OC)c1OC [podophyllotoxin-4,6-O-benzylidene-β-D-glucopyranoside] |  |  |  |  |  |  |  |  |  |  |  |  |  | completely disappeared |  | 
4 | N#C/C(=C\c1ccc(O)c(O)c1)C(=O)c1ccc(O)c(O)c1 [tyrphostin AG 538] |  |  |  |  |  |  |  |  |  |  |  |  |  |  | blocked | 400
